≈ marks a conversion by molar mass, not a printed value.
Experiments:
[1] = system: T98G (temozolomide resistant glioblastoma); assay: Cell growth inhibition, MTT assay, T98G; assay type: cell-based; details: Homo sapiens
Procedure: (§1) The ability of the synthesized compounds to inhibit the cell proliferation of human cancer cell lines was assayed by measuring cell viability through the use of the MTT method 72 h after treatment. For this purpose, representative cell lines of the most frequent kinds of cancer were selected, including the following: HeLa (cervix epithelioid carcinoma), MCF7 (breast adenocarcinoma), U87 MG (glioblastoma), T98G (temozolomide resistant glioblastoma), HepG2 (hepatocellular carcinoma), HCT8 (colorectal carcinoma), and HT-29 (colon adenocarcinoma).
(§2) The cell lines were obtained from ATTC (Manassas, VA, USA). […] The cells were periodically tested for Mycoplasma infection by using a MycoAlert kit (Lonza, Norwest, Australia), and only Mycoplasma-free cells were used in the experiments.
(§3) Then, every compound was added (10 µL/well) to a final concentration of 10 µM. Untreated cells were used as negative controls. The antiproliferative activity of compounds was measured 72 h after drug exposure through the MTT assay. […] For this purpose, compounds were used at different concentrations, ranging from 10^−10 to 10^−2 M. Measurements were performed in triplicate, and each experiment was repeated three times. The IC50 values were determined using Origin software (version 9.6, OriginLab, Washington, DC, USA).

[2] = system: HeLa (cervix epithelioid carcinoma); assay: Cell growth inhibition, MTT assay, HeLa; assay type: cell-based; details: Homo sapiens
Procedure: as §1, §2, §3

U87 MG (glioblastoma) = assay: Cell growth inhibition, MTT assay, U87 MG; assay type: cell-based; details: Homo sapiens, U-87 MG
Procedure: as §1, §2, §3

[3] = biological target: T1, microtubular protein isolated from calf brains (bovine brain tubulin) (Bos taurus, UniProt P81947+Q6B856); assay: Tubulin polymerization inhibition (TPI); assay type: biochemical; details: in vitro tubulin polymerization, mean ± SD
T1 construct: from tissue; host or cells: calf (bovine) brain
Procedure: We evaluated the capacity of the new synthesized compounds to inhibit the polymerization of microtubular protein isolated from calf brains. The assays were performed by taking absorbance measurements to quantify the amount of polymer mass formed in the presence (or absence; negative controls) of the compounds.
Bovine brain tubulin was isolated as previously described by following a modified version of the Shelanski method. The protein was stored at −80 °C, and its concentration was determined by employing the Bradford method before each use. […] Tubulin polymerization, caused when heating the samples, was accompanied by an increase in the absorbance (at 450 nm) of the sample that was monitored by using a Helios α spectrophotometer. […] Measurements were performed in triplicate in two independent experiments using microtubular proteins from different preparations.

[4] = system: HT-29 (colon adenocarcinoma); assay: Cell growth inhibition, MTT assay, HT-29, without or with verapamil; assay type: cell-based, human
Procedure: as §1
Multidrug resistance (MDR) proteins, especially P-glycoprotein (P-gp), are often involved in resistance mechanisms affecting tubulin-binding drugs that are frequently related to the failure of cancer therapies. […] These pumps are also part of the blood–brain barrier.
as §2, §3

[5] = system: HEK-293 (embryonic kidney); assay: Cell growth inhibition, MTT assay, non-tumor HEK-293; assay type: cell-based; details: Homo sapiens
Procedure: The ability of the synthesized compounds to inhibit the cell proliferation of human cancer cell lines was assayed by measuring cell viability through the use of the MTT method 72 h after treatment. For this purpose, representative cell lines of the most frequent kinds of cancer were selected, including the following: HeLa (cervix epithelioid carcinoma), MCF7 (breast adenocarcinoma), U87 MG (glioblastoma), T98G (temozolomide resistant glioblastoma), HepG2 (hepatocellular carcinoma), HCT8 (colorectal carcinoma), and HT-29 (colon adenocarcinoma). […] The compounds were also tested against the non-tumor HEK-293 cells to study their selectivity toward cancer cells. […] The cell lines were obtained from ATTC (Manassas, VA, USA). […] The cells were periodically tested for Mycoplasma infection by using a MycoAlert kit (Lonza, Norwest, Australia), and only Mycoplasma-free cells were used in the experiments. […] Louis, MO, USA), which was dissolved in PBS at 5 mg/mL in accordance with the manufacturer's instructions. […] Untreated cells were used as negative controls. The antiproliferative activity of compounds was measured 72 h after drug exposure through the MTT assay. […] For this purpose, compounds were used at different concentrations, ranging from 10^-10 to 10^-2 M. Measurements were performed in triplicate, and each experiment was repeated three times. The IC50 values were determined using Origin software (version 9.6, OriginLab, Washington, DC, USA).

[6] = system: HCT8 (colorectal carcinoma); assay: Cell growth inhibition, MTT assay, HCT8; assay type: cell-based; details: Homo sapiens
Procedure: as §1, §2, §3

[7] = system: HepG2 (hepatocellular carcinoma); assay: Cell growth inhibition, MTT assay, HepG2; assay type: cell-based; details: Homo sapiens
Procedure: as §1, §2, §3

[8] = system: MCF7 (breast adenocarcinoma); assay: Cell growth inhibition, MTT assay, MCF7; assay type: cell-based; details: Homo sapiens
Procedure: as §1, §2, §3

[9] = Aqueous solubility, shake-flask method, phosphate buffer pH 7.4; assay type: physicochemical; details: thermodynamic from solid, phosphate buffer pH 7.4, shake-flask, mean ± SD of three experiments
Procedure: The aqueous solubility of tetrazole derivatives was determined by the shaking flask methodology in phosphate buffer at pH 7.4, microfiltration, and quantification of the saturated solutions via UV spectroscopy. […] The introduction of polar groups on the 3-indole position was favorable since the most soluble compounds were the oximes 16–19 (38–53 µg/mL), followed by the carbaldehyde series 12–15 (33–45 µg/mL), and the carbonitrile derivatives (25–40 µg/mL), whereas the unsubstituted indoles 8–11 were the least soluble series (19–35 µg/mL).
The aqueous solubility of the compounds was determined using the saturation shake-flask method. First, calibration lines at the maximum wavelength of absorbance were determined for each compound. Then, 5 mg of each compound was suspended in 500 µL of pH 7.4 buffer, and the resulting mixture was shaken for 72 h at room temperature and filtrated over a […] filter to remove the insoluble fraction. The concentration of the compound in the supernatant (saturated solution) was determined by measuring UV absorbance at the maximum wavelength of absorbance and interpolation in the calibration line. A Helios Alfa Spectrophotometer was used for the UV measurements. The aqueous solubility values are given as the average of three independent experiments.

[10] = Homo sapiens, HT-29, 72 h after drug exposure
[11] = Homo sapiens, HT-29, mean ± SD, Table S1
[12] = mean ± SD, Table S1, in the presence of verapamil (10 µM)
[13] = HEK293, 72 h, non-tumorigenic cell line
[14] = HCT-8, 72 h after drug exposure
[15] = HEK293, heading: IC50 HEK-293, mean ± SD, Table S1, non-tumorigenic cell line

T1 sequence (Q6B856 whole entry): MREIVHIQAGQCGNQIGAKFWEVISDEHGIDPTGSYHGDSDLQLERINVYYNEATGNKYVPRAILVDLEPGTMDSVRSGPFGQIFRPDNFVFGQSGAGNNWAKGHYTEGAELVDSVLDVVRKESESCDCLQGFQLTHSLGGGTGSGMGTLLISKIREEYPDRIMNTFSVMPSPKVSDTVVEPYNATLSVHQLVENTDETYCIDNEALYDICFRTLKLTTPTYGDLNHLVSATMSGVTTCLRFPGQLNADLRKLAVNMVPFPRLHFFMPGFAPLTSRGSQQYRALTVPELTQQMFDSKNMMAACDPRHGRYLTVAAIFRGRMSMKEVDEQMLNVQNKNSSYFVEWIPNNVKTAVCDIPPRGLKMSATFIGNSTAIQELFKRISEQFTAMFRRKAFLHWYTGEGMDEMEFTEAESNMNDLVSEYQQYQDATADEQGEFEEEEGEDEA
T1 sequence (P81947 whole entry): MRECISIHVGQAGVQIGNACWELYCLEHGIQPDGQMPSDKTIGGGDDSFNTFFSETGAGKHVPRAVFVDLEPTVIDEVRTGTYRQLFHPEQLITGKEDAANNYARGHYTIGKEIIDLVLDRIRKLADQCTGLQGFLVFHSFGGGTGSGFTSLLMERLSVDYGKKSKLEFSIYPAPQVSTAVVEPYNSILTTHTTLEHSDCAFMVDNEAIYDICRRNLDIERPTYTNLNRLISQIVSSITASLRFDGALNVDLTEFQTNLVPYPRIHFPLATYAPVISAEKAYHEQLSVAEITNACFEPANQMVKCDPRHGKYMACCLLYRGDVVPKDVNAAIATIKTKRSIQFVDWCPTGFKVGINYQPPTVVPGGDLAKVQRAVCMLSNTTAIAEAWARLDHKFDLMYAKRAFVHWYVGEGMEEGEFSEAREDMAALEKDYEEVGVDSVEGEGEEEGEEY

| SMILES | IC50 ([1]; 72 h, 72 h after drug exposure) | IC50 ([1]; mean ± SD, Table S1) | IC50 ([2]; 72 h after drug exposure) | IC50 ([2]; mean ± SD, Table S1) | IC50 (U87 MG (glioblastoma); 72 h after drug exposure) | IC50 (U87 MG (glioblastoma); mean ± SD, Table S1) | IC50 [3] | IC50 [4, 10] | IC50 [4, 11] | IC50 [4, 12] | IC50 [5, 13] | IC50 [6, 14] | IC50 ([6]; HCT-8, mean ± SD, Table S1) | IC50 ([7]; 72 h after drug exposure) | IC50 ([7]; mean ± SD, Table S1) | IC50 ([8]; 72 h after drug exposure) | IC50 ([8]; mean ± SD, Table S1) | solubility at 72 h [9] | further results |
| --- | --- | --- | --- | --- | --- | --- | --- | --- | --- | --- | --- | --- | --- | --- | --- | --- | --- | --- | --- |
| CSc1cc(-c2nnnn2-c2ccc3c(c2)c(C=NO)cn3C)cc(SC)n1 [Compound 19, 5-(5-(2,6-bis(methylsulfanyl)pyridin-4-yl)-1H-tetrazol-1-yl)-1-methyl-1H-indole-3-carbaldehyde oxime] | 294 nM | 294 ± 3 nM | 307 nM | 307.1 ± 2.8 nM | 275 nM | 275 ± 2.8 nM | 4300 ± 200 nM | 355 nM | 355.5 ± 2.3 nM | 359 ± 4.1 nM | 8310 nM | 333 nM | 333.2 ± 2.7 nM | 341 nM | 341.4 ± 3.3 nM | 339 nM | 339.5 ± 2.4 nM | 47.8 ± 0.6 µg/mL (≈ 116 µM) | – |
| COc1cc(-c2nnnn2-c2ccc3c(ccn3C)c2)cc(Cl)n1 [Compound 9, 5-(5-(2-chloro-6-methoxypyridin-4-yl)-1H-tetrazol-1-yl)-1-methyl-1H-indole] | 54 nM | 54.4 ± 0.5 nM | 72 nM | 72.5 ± 0.4 nM | 48 nM | 48.1 ± 0.4 nM | 3100 ± 200 nM | 81 nM | 81.1 ± 0.5 nM | 80.2 ± 0.6 nM | 5200 nM | 75 nM | 75.4 ± 0.6 nM | 70 nM | 70.5 ± 0.5 nM | 69 nM | 69.3 ± 0.5 nM | 35.4 ± 0.2 µg/mL (≈ 104 µM) | – |
| COc1ccc(/C=C\c2cc(OC)c(OC)c(OC)c2)cc1O [CA-4, combretastatin A4, reference compound] | 17 nM | 17.1 ± 0.2 nM | 2 nM | – | 10 nM | 10.1 ± 0.1 nM | – | 305 nM | 305.4 ± 2.5 nM | 327.5 ± 2.2 nM | 721 nM | 220 nM | 220.4 ± 2 nM | 13 nM | 13.4 ± 0.2 nM | 1 nM | 1.4 ± 0.1 nM | 1.1 ± 0.1 µg/mL (≈ 3.48 µM) | – |
| COc1cc(-c2nnnn2-c2ccc3c(c2)c(C#N)cn3C)cc(Cl)n1 [Compound 21, 5-(5-(2-chloro-6-methoxypyridin-4-yl)-1H-tetrazol-1-yl)-1-methyl-1H-indole-3-carbonitrile] | 689 nM | 689 ± 7.5 nM | 722 nM | 722.1 ± 5 nM | 634 nM | – | 6900 ± 300 nM | 749 nM | 749.5 ± 5.1 nM | 756.2 ± 5.6 nM | > 10000 nM | 705 nM | 705.4 ± 4.9 nM | 740 nM | 740.3 ± 6.4 nM | 701 nM | 701.5 ± 5.2 nM | 39.7 ± 0.4 µg/mL (≈ 109 µM) | IC50 [5, 15]: > 10000 nM |
| COc1ccc(S(=O)(=O)Nc2cccnc2Nc2ccc(O)cc2)cc1 [ABT-751, reference compound] | – | – | 388 nM | 388 ± 3.9 nM | – | 375 ± 5.4 nM | – | 213 nM | 213.5 ± 2.1 nM | 250 ± 2.9 nM | – | 209 nM | 209.1 ± 2 nM | – | 327.1 ± 1.1 nM | 180 nM | 180 ± 2.8 nM | 40 ± 0.3 µg/mL (≈ 108 µM) | – |
| COc1cc(-c2nnnn2-c2ccc3c(c2)c(C=NO)cn3C)cc(Cl)n1 [Compound 17, 5-(5-(2-chloro-6-methoxypyridin-4-yl)-1H-tetrazol-1-yl)-1-methyl-1H-indole-3-carbaldehyde oxime] | 181 nM | 181.4 ± 1.5 nM | 220 nM | 220.2 ± 1.9 nM | 155 nM | 155.2 ± 1.3 nM | 3800 ± 100 nM | 238 nM | – | 230 ± 2.5 nM | 7250 nM | 227 nM | – | 229 nM | – | 215 nM | – | 53 ± 0.3 µg/mL (≈ 138 µM) | – |
| Cn1nnc2c(C(N)=O)ncn2c1=O [TMZ, temozolomide, reference compound] | – | – | > 10000 nM | – | – | – | – | – | > 10 nM | – | > 10000 nM | > 10000 nM | – | > 10000 nM | – | > 10000 nM | – | – | IC50 ([2]; heading: IC50 HeLa, mean ± SD, Table S1): > 10000 nM; IC50 (U87 MG (glioblastoma); 72 h, 72 h after drug exposure): > 100000 nM; IC50 [5, 15]: > 10000 nM; IC50 ([6]; HCT-8, heading: IC50 HCT8, mean ± SD, Table S1): > 10000 nM; IC50 ([7]; heading: IC50 HepG2, mean ± SD, Table S1): > 10000 nM; IC50 ([8]; heading: IC50 MCF7, mean ± SD, Table S1): > 10000 nM |

— article PMC10342533, “Novel Tetrazole Derivatives Targeting Tubulin Endowed with Antiproliferative Activity against Glioblastoma Cells” (International Journal of Molecular Sciences, 2023)
